{"source": "patent US20200024278A1", "about": "“COMPOSITION COMPRISING ANTIBIOTIC COMPOUND AND AN HETEROCYCLIC COMPOUND AND THEIR USE IN PREVENTING OR TREATING BACTERIAL INFECTIONS” (MUTABILIS, priority 2016, published 2020)", "test_in_all_cases": "MIC, broth microdilution (CLSI), substance alone or ATB combined with compound at 4 or 8 μg/mL", "key": {"ECO 190317": {"test_system": "ECO 190317", "assay_type": "cell-based, E. coli", "settings": "ECO 190317; for MIC ATB combined with Example: Example @8 μg/ml", "outline": "(§1)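 CLSI M7-A7 broth microdilution. ca-MHB, 5·10^5 CFU/mL log-phase cells, 16-20 h, 35° C, ambient air. Fosfomycin wells + 25 μg/ml glucose-6-phosphate. Visual MIC read.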"}, "ECO UFR39": {"test_system": "ECO UFR39", "assay_type": "cell-based, E. coli", "settings": "ECO UFR39; for MIC ATB combined with Example: Example @8 μg/ml", "outline": "as §1"}, "KPN 6299": {"test_system": "KPN 6299", "assay_type": "cell-based, K. pneumoniae", "settings": "Example @8 μg/ml", "outline": "as §1"}, "KPN BAA-1898": {"test_system": "KPN BAA-1898", "assay_type": "cell-based, K. pneumoniae", "settings": "KPN BAA-1898; for MIC ATB combined with Example: Example @8 μg/ml", "outline": "as §1"}, "KPN UFR42": {"test_system": "KPN UFR42", "assay_type": "cell-based, K. pneumoniae", "settings": "KPN UFR42; for MIC ATB combined with Example: Example @8 μg/ml", "outline": "as §1"}, "ECL P99": {"test_system": "ECL P99", "assay_type": "cell-based, E. cloacae", "settings": "ECL P99; for MIC ATB combined with Example: Example @8 μg/ml", "outline": "as §1"}, "PAE 105250": {"test_system": "PAE 105250", "assay_type": "cell-based, P. aeruginosa", "settings": "PAE 105250; for MIC ATB combined with Example: Example @8 μg/ml", "outline": "as §1"}, "PAE UFR48": {"test_system": "PAE UFR48", "assay_type": "cell-based, P. aeruginosa", "settings": "PAE UFR48; for MIC ATB combined with Example: Example @8 μg/ml", "outline": "as §1"}, "PAE UFR90": {"test_system": "PAE UFR90", "assay_type": "cell-based, P. aeruginosa", "settings": "PAE UFR90; for MIC ATB combined with Example: Example @8 μg/ml", "outline": "as §1"}, "SAU 29213": {"test_system": "SAU 29213", "assay_type": "cell-based, S. aureus", "settings": "for MIC ATB combined with Example: SAU 29213, Example @8 μg/ml", "outline": "as §1"}, "SPN 49619": {"test_system": "SPN 49619", "assay_type": "cell-based, S. pneumoniae", "settings": "SPN 49619; for MIC ATB combined with Example: Example @8 μg/ml", "outline": "as §1"}, "ABA UFR154": {"test_system": "ABA UFR154", "assay_type": "cell-based, A. baumannii", "settings": "Acinetobacter baumannii, substance alone, read-out: MIC", "outline": "as §1"}, "ABA UFR155": {"test_system": "ABA UFR155", "assay_type": "cell-based, A. baumannii", "settings": "Acinetobacter baumannii, substance alone, read-out: MIC", "outline": "as §1"}, "[1]": {"settings": "Escherichia coli, substance alone, read-out: MIC"}, "[2]": {"settings": "Pseudomonas aeruginosa, substance alone, read-out: MIC"}}, "note": "Counter-ions that a name gives are not always drawn.", "data": [{"smiles": "NCCCn1c2c(sc1=O)C1CN(C2)C(=O)N1OS(=O)(=O)O", "note": "(stereo not shown) [Example 10, [5-(3-aminopropyl)-4,9-dioxo-3-thia-5,8,10-triaza-tricyclo[6.2.1.0^2,6]undec-2(6)-en-10-yl] hydrogen sulfate]", "values": [{"measurement": "MIC ATB combined with Example", "setting": "ECO 190317; ATB ATM", "result": "<0.031", "unit": "µg/mL"}, {"measurement": "MIC ATB combined with Example", "setting": "ECO 190317; ATB FEP", "result": "<0.031", "unit": "µg/mL"}, {"measurement": "MIC ATB combined with Example", "setting": "ECO 190317; ATB FOS", "result": "<0.125", "unit": "µg/mL"}, {"measurement": "MIC ATB combined with Example", "setting": "ECO 190317; ATB MEM", "result": "<0.031", "unit": "µg/mL"}, {"measurement": "MIC ATB combined with Example", "setting": "ECO 190317; ATB PIP", "result": "<0.031", "unit": "µg/mL"}, {"measurement": "MIC", "setting": "ECO 190317; [1]", "result": 0.5, "unit": "µg/mL"}, {"measurement": "MIC ATB combined with Example", "setting": "ECO UFR39; ATB ATM", "result": "<=0.031 μg/mL"}, {"measurement": "MIC ATB combined with Example", "setting": "ECO UFR39; ATB FEP", "result": "<=0.031 μg/mL"}, {"measurement": "MIC ATB combined with Example", "setting": "ECO UFR39; ATB FOS", "result": "<0.125", "unit": "µg/mL"}, {"measurement": "MIC ATB combined with Example", "setting": "ECO UFR39; ATB MEM", "result": "<0.031", "unit": "µg/mL"}, {"measurement": "MIC ATB combined with Example", "setting": "ECO UFR39; ATB PIP", "result": "<0.031", "unit": "µg/mL"}, {"measurement": "MIC", "setting": "ECO UFR39; [1]", "result": 2, "unit": "µg/mL"}, {"measurement": "MIC ATB combined with Example", "setting": "KPN 6299; ATB ATM", "result": "<=0.031 μg/mL"}, {"measurement": "MIC ATB combined with Example", "setting": "KPN 6299; ATB FEP", "result": 0.063, "unit": "µg/mL"}, {"measurement": "MIC ATB combined with Example", "setting": "KPN 6299; ATB FOS", "result": 32, "unit": "µg/mL"}, {"measurement": "MIC ATB combined with Example", "setting": "KPN 6299; ATB MEM", "result": 0.063, "unit": "µg/mL"}, {"measurement": "MIC ATB combined with Example", "setting": "KPN 6299; ATB PIP", "result": 1, "unit": "µg/mL"}, {"measurement": "MIC ATB combined with Example", "setting": "KPN BAA-1898; ATB ATM", "result": "<=0.031 μg/mL"}, {"measurement": "MIC ATB combined with Example", "setting": "KPN BAA-1898; ATB FEP", "result": "<=0.031 μg/mL"}, {"measurement": "MIC ATB combined with Example", "setting": "KPN BAA-1898; ATB FOS", "result": 2, "unit": "µg/mL"}, {"measurement": "MIC ATB combined with Example", "setting": "KPN BAA-1898; ATB MEM", "result": "<=0.031 μg/mL"}, {"measurement": "MIC ATB combined with Example", "setting": "KPN BAA-1898; ATB PIP", "result": "<=0.031 μg/mL"}, {"measurement": "MIC", "setting": "KPN BAA-1898; Klebsiella pneumoniae, BAA1898, substance alone, read-out: MIC", "result": 16, "unit": "µg/mL"}, {"measurement": "MIC ATB combined with Example", "setting": "KPN UFR42; ATB ATM", "result": 0.063, "unit": "µg/mL"}, {"measurement": "MIC ATB combined with Example", "setting": "KPN UFR42; ATB FEP", "result": "<=0.031 μg/mL"}, {"measurement": "MIC ATB combined with Example", "setting": "KPN UFR42; ATB FOS", "result": 8, "unit": "µg/mL"}, {"measurement": "MIC ATB combined with Example", "setting": "KPN UFR42; ATB MEM", "result": ">32", "unit": "µg/mL"}, {"measurement": "MIC ATB combined with Example", "setting": "KPN UFR42; ATB PIP", "result": ">32", "unit": "µg/mL"}, {"measurement": "MIC", "setting": "KPN UFR42; Klebsiella pneumoniae, substance alone, read-out: MIC", "result": "> 32", "unit": "µg/mL"}, {"measurement": "MIC ATB combined with Example", "setting": "ECL P99; ATB ATM", "result": "<0.031", "unit": "µg/mL"}, {"measurement": "MIC ATB combined with Example", "setting": "ECL P99; ATB FEP", "result": "<0.031", "unit": "µg/mL"}, {"measurement": "MIC ATB combined with Example", "setting": "ECL P99; ATB FOS", "result": "<0.125", "unit": "µg/mL"}, {"measurement": "MIC ATB combined with Example", "setting": "ECL P99; ATB MEM", "result": "<0.031", "unit": "µg/mL"}, {"measurement": "MIC ATB combined with Example", "setting": "ECL P99; ATB PIP", "result": "<0.031", "unit": "µg/mL"}, {"measurement": "MIC", "setting": "ECL P99; Enterobacter cloacae, substance alone, read-out: MIC", "result": 2, "unit": "µg/mL"}, {"measurement": "MIC ATB combined with Example", "setting": "PAE 105250; ATB ATM", "result": "<0.031", "unit": "µg/mL"}, {"measurement": "MIC ATB combined with Example", "setting": "PAE 105250; ATB FEP", "result": "<0.031", "unit": "µg/mL"}, {"measurement": "MIC ATB combined with Example", "setting": "PAE 105250; ATB FOS", "result": "<0.125", "unit": "µg/mL"}, {"measurement": "MIC ATB combined with Example", "setting": "PAE 105250; ATB MEM", "result": "<0.031", "unit": "µg/mL"}, {"measurement": "MIC ATB combined with Example", "setting": "PAE 105250; ATB PIP", "result": "<0.031", "unit": "µg/mL"}, {"measurement": "MIC", "setting": "PAE 105250; [2]", "result": 4, "unit": "µg/mL"}, {"measurement": "MIC ATB combined with Example", "setting": "PAE UFR48; ATB ATM", "result": "<0.031", "unit": "µg/mL"}, {"measurement": "MIC ATB combined with Example", "setting": "PAE UFR48; ATB FEP", "result": "<0.031", "unit": "µg/mL"}, {"measurement": "MIC ATB combined with Example", "setting": "PAE UFR48; ATB FOS", "result": "<0.125", "unit": "µg/mL"}, {"measurement": "MIC ATB combined with Example", "setting": "PAE UFR48; ATB MEM", "result": "<0.031", "unit": "µg/mL"}, {"measurement": "MIC ATB combined with Example", "setting": "PAE UFR48; ATB PIP", "result": "<0.031", "unit": "µg/mL"}, {"measurement": "MIC", "setting": "PAE UFR48; [2]", "result": 4, "unit": "µg/mL"}, {"measurement": "MIC ATB combined with Example", "setting": "PAE UFR90; ATB ATM", "result": "<0.031", "unit": "µg/mL"}, {"measurement": "MIC ATB combined with Example", "setting": "PAE UFR90; ATB FEP", "result": "<0.031", "unit": "µg/mL"}, {"measurement": "MIC ATB combined with Example", "setting": "PAE UFR90; ATB FOS", "result": "<0.125", "unit": "µg/mL"}, {"measurement": "MIC ATB combined with Example", "setting": "PAE UFR90; ATB MEM", "result": "<0.031", "unit": "µg/mL"}, {"measurement": "MIC ATB combined with Example", "setting": "PAE UFR90; ATB PIP", "result": "<0.031", "unit": "µg/mL"}, {"measurement": "MIC", "setting": "PAE UFR90; [2]", "result": 4, "unit": "µg/mL"}, {"measurement": "MIC ATB combined with Example", "setting": "SAU 29213; ATB ATM", "result": ">32", "unit": "µg/mL"}, {"measurement": "MIC ATB combined with Example", "setting": "SAU 29213; ATB FEP", "result": 0.5, "unit": "µg/mL"}, {"measurement": "MIC ATB combined with Example", "setting": "SAU 29213; ATB FOS", "result": "<=0.125 μg/mL"}, {"measurement": "MIC ATB combined with Example", "setting": "SAU 29213; ATB MEM", "result": "<=0.031 μg/mL"}, {"measurement": "MIC ATB combined with Example", "setting": "SAU 29213; ATB PIP", "result": 1, "unit": "µg/mL"}, {"measurement": "MIC", "setting": "SAU 29213; Staphylococcus aureus, substance alone, SAU 29213 (MSSA 29213), read-out: MIC", "result": 32, "unit": "µg/mL"}, {"measurement": "MIC ATB combined with Example", "setting": "SPN 49619; ATB ATM", "result": "<0.031", "unit": "µg/mL"}, {"measurement": "MIC ATB combined with Example", "setting": "SPN 49619; ATB FEP", "result": "<0.031", "unit": "µg/mL"}, {"measurement": "MIC ATB combined with Example", "setting": "SPN 49619; ATB FOS", "result": "<0.125", "unit": "µg/mL"}, {"measurement": "MIC ATB combined with Example", "setting": "SPN 49619; ATB MEM", "result": "<0.031", "unit": "µg/mL"}, {"measurement": "MIC ATB combined with Example", "setting": "SPN 49619; ATB PIP", "result": "<0.031", "unit": "µg/mL"}, {"measurement": "MIC", "setting": "SPN 49619; Streptococcus pneumoniae, substance alone, read-out: MIC", "result": 1, "unit": "µg/mL"}, {"measurement": "MIC", "setting": "ABA UFR154", "result": "> 32", "unit": "µg/mL"}, {"measurement": "MIC", "setting": "ABA UFR155", "result": "> 32", "unit": "µg/mL"}]}]}
